From the NIST ThermoML archive (doi:10.1021/acs.jced.7b00827) come the findings set out here.

For data set [1] the following is noted: Liquid, Ebulliometric method (Recirculating still).
The nature of data set [2]: refractive index (Na D-line) (dimensionless). As to conditions: 101.33 kPa, Standard Abbe refractometry.

Numbers after ± are expanded uncertainties.

In general, vapor or sublimation pressure refers to the equilibrium pressure above the liquid or solid. As to `O` [water], the “vapor or sublimation pressure” value in data set [1] (373.05 K) was found to be 101.3 ± 0.5 kPa.

As a reminder, the refractive index is a measure of how strongly the sample bends light. For the compound `CC(O)CNCC(C)O` (stereo not drawn) [N-(2-hydroxypropyl)-2-hydroxy-1-propanamine], in data set [2] (294.15 K, Liquid), the refractive index came out at 1.4625 ± 0.0008. For the same compound, the “vapor or sublimation pressure” value in data set [1] (468.25 K) is 20 ± 0.2 kPa. Further, the Normal boiling temperature in data set [1] amounted to 249.1 ± 1 °C.

As for `Cc1cccc(O)c1` [3-methylphenol], the refractive index in data set [2] (293.15 K, Liquid) is reported as 1.5396 ± 0.0008; in data set [2] (298.15 K, Liquid) it was 1.5374 ± 0.0008. In addition, the “vapor or sublimation pressure” value in data set [1] (422.28 K) came to 20 ± 0.2 kPa. In addition, the Normal boiling temperature in data set [1] turned out to be 202.20 ± 1 °C.

As for `CCO` [ethanol], the “vapor or sublimation pressure” value in data set [1] (351.38 K) is 101.3 ± 0.5 kPa.

`Cc1cccc(C)c1O` [2,6-dimethylphenol]: the refractive index in data set [2] (293.15 K, Metastable liquid) turned out to be 1.5075 ± 0.0008; in data set [2] (298.15 K, Metastable liquid), 1.5053 ± 0.0008. Also, in data set [1] (418.21 K), the “vapor or sublimation pressure” value is on record as 20 ± 0.2 kPa. For the same compound, the Normal boiling temperature in data set [1] stood at 201.20 ± 1 °C.
